This note sets out measurements from patent publication US20240383873A1, “PESTICIDALLY ACTIVE CYCLIC AMINE COMPOUNDS” (SYNGENTA CROP PROTECTION AG, priority 2021, published 2024).

Usually mortality stands for the share of the test organisms that died. A higher mortality goes with fewer survivors.

Some results are limits rather than exact numbers.

This assay deals with Tetranychus Urticae (Two-Spotted Spider Mite). The assay is described as follows: Tetranychus urticae (two-spotted spider mite): feeding/contact activity. In kind it is in vivo. Particulars: foliar, 192 h, application rate of 200 ppm, bean leaf discs sprayed, mixed population (mobile stages), 8 days after infestation. As to the method: Example B1: Tetranychus Urticae (Two-Spotted Spider Mite): Feeding/Contact Activity
Bean leaf discs on agar in 24-well microtiter plates were sprayed with aqueous test solutions prepared from 10'000 ppm DMSO stock solutions. After drying the leaf discs were infested with a mite population of mixed ages. The samples were assessed for mortality on mixed population (mobile stages) 8 days after infestation.

`CNS(=O)(=O)C1CCN(C(=O)c2cc(C#N)c(OCc3cc(C(F)(F)F)ccc3F)nc2C(F)(F)F)CC1` [Compound P1.1, 1-[5-cyano-6-[[2-fluoro-5-(trifluoromethyl)phenyl]methoxy]-2-(trifluoromethyl)pyridine-3-carbonyl]-N-methyl-piperidine-4-sulfonamide] registered a mortality at 200 ppm of at least 80%.
Compound `CN(C)S(=O)(=O)C1CCN(C(=O)c2cc(C#N)c(OCc3ccc4c(c3)OC(F)(F)O4)nc2C(F)(F)F)CC1` [Compound P1.24, 1-[5-Cyano-6-[(2,2-difluoro-1,3-benzodioxol-5-yl)methoxy]-2-(trifluoromethyl)pyridine-3-carbonyl]-N,N-dimethyl-piperidine-4-sulfonamide] registered a mortality at 200 ppm of at least 80%.
For `CN(C)C(=O)CC1CCN(C(=O)c2cc(C#N)c(OCc3cc(C(F)(F)F)ccc3F)nc2C(F)(F)F)CC1` [Compound P1.37, 2-[1-[5-Cyano-6-[[2-fluoro-5-(trifluoromethyl)phenyl]methoxy]-2-(trifluoromethyl)pyridine-3-carbonyl]-4-piperidyl]-N,N-dimethyl-acetamide] the value was at least 80%; for `CN(C)C(=O)CN1CCN(C(=O)c2cc(C#N)c(OCc3cc(C(F)(F)F)ccc3F)nc2C(F)(F)F)CC1` [Compound P2.6, 2-[4-[5-Cyano-6-[[2-fluoro-5-(trifluoromethyl)phenyl]methoxy]-2-(trifluoromethyl)pyridine-3-carbonyl]piperazin-1-yl]-N,N-dimethyl-acetamide], at least 80%.
